In US20240158446A1, “CYCLIC COMPOUND HAVING SELECTIVE INHIBITORY ACTION ON KRAS OVER HRAS AND NRAS” (CHUGAI SEIYAKU KABUSHIKI KAISHA, priority 2021, published 2024):
Read-outs that look alike come from different tables or passages of the source. *1 amine or outer side, *2 acyl side, *3 side chain or, on linkers, in order; H or OH if unused. Where a SMILES comes first, the peptide text is derived from it. Bridges are numbered along the chain shown (N, C = ends). [ ]: non-standard residue; d: D form. The star is where a group is joined. hPhe(3-Cl-4-CF3) = N[C@@H](CCc1ccc(C(F)(F)F)c(Cl)c1)C(=O)O; X31 = COCCCN([C@@H](Cc1ccc(C(F)(F)F)cc1)C(=O)[*:2])[*:1]; NPrPhe(4-CF3) = CCCN[C@@H](Cc1ccc(C(F)(F)F)cc1)C(=O)O; NEtPhe(4-CF3) = CCN[C@@H](Cc1ccc(C(F)(F)F)cc1)C(=O)O; NMeGly(cPent) = CN[C@H](C(=O)O)C1CCCC1; NMeD = CN[C@@H](CC(=O)O)C(=O)O; NMeL = CN[C@@H](CC(C)C)C(=O)O; Ac6c = NC1(C(=O)O)CCCCC1; Morpholide = C1CN(*)CCO1; NMeA = CN[C@@H](C)C(=O)O; Ac5c = NC1(C(=O)O)CCCC1; Aze = O=C(O)[C@@H]1CCN1; Aib = CC(C)(N)C(=O)O; Sar = CNCC(=O)O

Legend:
[1] = target: GDP-bound HRAS wild-type protein (Homo sapiens, UniProt P01112); test: Binding to HRAS by surface plasmon resonance (SPR), Single Cycle Kinetics; conditions: SPR, GDP-bound HRAS wild-type protein vs GDP-bound KRAS wild-type protein
[2] = target: GDP-bound KRAS wild-type protein (Homo sapiens, UniProt P01116); test: Binding to KRAS by surface plasmon resonance (SPR), Single Cycle Kinetics; conditions: GDP-bound KRAS wild-type protein, read-out: KRAS KD
[3] = target: GDP-bound NRAS wild-type protein (Homo sapiens, UniProt P01111); test: Binding to NRAS by surface plasmon resonance (SPR), Single Cycle Kinetics; conditions: SPR, GDP-bound NRAS wild-type protein vs GDP-bound KRAS wild-type protein
[4] = SPR Single Cycle Kinetics, 1:1 binding model

Sequence of GDP-bound KRAS wild-type protein (P01116 whole entry): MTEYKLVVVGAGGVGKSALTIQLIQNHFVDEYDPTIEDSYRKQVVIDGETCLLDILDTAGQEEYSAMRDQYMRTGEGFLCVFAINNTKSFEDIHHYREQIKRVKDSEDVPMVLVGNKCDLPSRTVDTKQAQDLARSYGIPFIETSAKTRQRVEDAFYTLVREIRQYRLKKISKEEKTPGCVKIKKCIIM
Sequence of GDP-bound HRAS wild-type protein (P01112 whole entry): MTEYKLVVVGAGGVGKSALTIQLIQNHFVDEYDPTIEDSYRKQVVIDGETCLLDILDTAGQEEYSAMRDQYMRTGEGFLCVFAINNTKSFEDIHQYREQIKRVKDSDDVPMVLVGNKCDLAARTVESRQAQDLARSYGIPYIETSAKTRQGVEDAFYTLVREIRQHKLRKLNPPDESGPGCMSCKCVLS
Sequence of GDP-bound NRAS wild-type protein (P01111 whole entry): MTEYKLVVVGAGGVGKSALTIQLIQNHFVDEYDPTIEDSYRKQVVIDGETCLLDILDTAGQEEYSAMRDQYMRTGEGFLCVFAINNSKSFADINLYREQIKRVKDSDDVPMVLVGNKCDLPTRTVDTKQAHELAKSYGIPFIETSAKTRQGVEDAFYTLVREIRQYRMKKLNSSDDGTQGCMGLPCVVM

Compound	Kd [2, 4]	Kd ([2]; SPR, Single Cycle Kinetics)	HRAS/KRAS (ratio of KD value for HRAS to KD value for KRAS) [1]	NRAS/KRAS (ratio of KD value for NRAS to KD value for KRAS) [3]	HRAS/KRAS (ratio of KD value with respect to HRAS to KD value with respect to KRAS) [1]	NRAS/KRAS (ratio of KD value with respect to NRAS to KD value with respect to KRAS) [3]
CCCN1C(=O)CN(C)C(=O)CN(C)C(=O)[C@H]([C@@H](C)CC)NC(=O)[C@H](CC(C)C)N(C)C(=O)C[C@@H](C(=O)N2CCOCC2)N(C)C(=O)[C@H](C2CCCC2)N(C)C(=O)C(C)(C)NC(=O)[C@@H]2CCCN2C(=O)[C@H](CCc2ccc(C(F)(F)F)c(Cl)c2)NC(=O)CN(C)C(=O)[C@@H]1Cc1ccc(C(F)(F)F)cc1 [PP0230] ([NMeL]I[Sar][Sar][NPrPhe(4-CF3)][Sar][hPhe(3-Cl-4-CF3)]P[Aib][NMeGly(cPent)][NMeD]-Morpholide; lactam N-11)	0.39 nM		C (A compound having a KD ratio of 0.1 or more and less than 3 is denoted as C)	B (a compound having 3 or more and less than 10 is denoted as B)		
CCO[C@@H]1C[C@H]2C(=O)NC3(CC(C)(C)C3)C(=O)N(C)[C@@H](C(CC)CC)C(=O)N(C)[C@H](C(=O)N(C)C)CC(=O)N(C)[C@@H](C)C(=O)N[C@@H]([C@@H](C)CC)C(=O)N(C)CC(=O)N(C)[C@H]3C/C=C\CCN(C3=O)[C@@H](Cc3ccc(C)cc3)C(=O)N(C)CC(=O)N[C@@H](CCc3cc(F)c(C(F)(F)F)c(F)c3)C(=O)N2C1 [PP2143]		0.31 nM	A (a compound having 10 or more and less than 20 is denoted as A)	A (a compound having 10 or more and less than 20 is denoted as A)		
CCC[C@@H]1C[C@H]2C(=O)NC3(CC(C)(C)C3)C(=O)N(C)[C@@H](C3CCCC3)C(=O)N(C)[C@H](C(=O)N(C)C)CC(=O)N(C)[C@@H](COC)C(=O)N[C@@H]([C@@H](C)CC)C(=O)N(C)CC(=O)N(C)[C@H]3C/C=C\CCN(C3=O)[C@@H](Cc3ccc(C(F)(F)F)cc3)C(=O)N(C)CC(=O)N[C@@H](CCc3ccc(C(F)(F)F)c(Cl)c3)C(=O)N2C1 [PP2275]		0.36 nM	A (a compound having 10 or more and less than 20 is denoted as A)	A (a compound having 10 or more and less than 20 is denoted as A)		
CC[C@H](C)[C@@H]1NC(=O)[C@H](CC(C)C)N(C)C(=O)C[C@@H](C(=O)N2CCOCC2)N(C)C(=O)[C@H](C2CCCC2)N(C)C(=O)C(C)(C)NC(=O)[C@@H]2CCCN2C(=O)[C@H](CCc2ccc(C(F)(F)F)c(Cl)c2)NC(=O)CN(C)C(=O)[C@H](Cc2ccc(C(F)(F)F)cc2)N(CC)C(=O)[C@@H]2CCN2C(=O)[C@H](C)N(C)C1=O [PP0221] ([NMeL]I[NMeA][Aze][NEtPhe(4-CF3)][Sar][hPhe(3-Cl-4-CF3)]P[Aib][NMeGly(cPent)][NMeD]-Morpholide; lactam N-11)	0.19 nM		C (A compound having a KD ratio of 0.1 or more and less than 3 is denoted as C)	C (A compound having a KD ratio of 0.1 or more and less than 3 is denoted as C)		
CCO[C@@H]1C[C@H]2C(=O)NC3(CCC3)C(=O)N(C)[C@@H](C3CCCC3)C(=O)N(C)[C@H](C(=O)N(C)C)CC(=O)N(C)[C@@H](CC)C(=O)N[C@@H]([C@@H](C)CC)C(=O)NCC(=O)N(C)[C@H]3C/C=C\CCN(C3=O)[C@@H](Cc3ccc(C(F)(F)F)cc3)C(=O)N(C)CC(=O)N[C@@H](CCc3cc(F)c(C(F)(F)F)c(F)c3)C(=O)N2C1 [PP0983, (2S,8S,12R,14S,20S,23S,27S,30S,36S,38Z)-20-cyclopentyl-8-[2-[3,5-difluoro-4-(trifluoromethyl)phenyl]ethyl]-12-ethoxy-27-ethyl-N,N,4,19,22,26,35-heptamethyl-30-[(1S)-1-methylpropyl]-3,6,9,15,18,21,25,28,31,34,42-undecaoxo-2-[[4-(trifluoromethyl)phenyl]methyl]spiro[1,4,7,10,16,19,22,26,29,32,35-undecazatricyclo[34.5.1.0^10,14]dotetracont-38-ene-17,1′-cyclobutane]-23-carboxamide]		0.078 nM	A (a compound having 10 or more and less than 20 is denoted as A)	A (a compound having 10 or more and less than 20 is denoted as A)		
CCO[C@@H]1C[C@H]2C(=O)NC3(CCC3)C(=O)N(C)[C@@H](C3CCCC3)C(=O)N(C)[C@H](C(=O)N(C)C)CC(=O)N(C)[C@@H](CC)C(=O)N[C@@H]([C@@H](C)CC)C(=O)N(C)CC(=O)N(C)[C@H]3CCCCN(C3=O)[C@@H](Cc3ccc(C(F)(F)F)cc3)C(=O)N(C)CC(=O)N[C@@H](CCc3ccc(OC(F)F)c(F)c3)C(=O)N2C1 [PP0986]		0.27 nM	C (A compound having a KD ratio of 0.1 or more and less than 3 is denoted as C)	C (A compound having a KD ratio of 0.1 or more and less than 3 is denoted as C)		

Now from value to compound, other results behind:

Kd [2, 4]	Kd ([2]; SPR, Single Cycle Kinetics)	Compound	HRAS/KRAS (ratio of KD value for HRAS to KD value for KRAS) [1]	NRAS/KRAS (ratio of KD value for NRAS to KD value for KRAS) [3]	HRAS/KRAS (ratio of KD value with respect to HRAS to KD value with respect to KRAS) [1]	NRAS/KRAS (ratio of KD value with respect to NRAS to KD value with respect to KRAS) [3]
2.9 nM		CCCN1C(=O)CN(C)C(=O)[C@@H]2CCCN2C(=O)[C@H]([C@@H](C)CC)NC(=O)[C@H](CC(C)C)N(C)C(=O)C[C@@H](C(=O)N2CCOCC2)N(C)C(=O)[C@H](C2CCCC2)N(C)C(=O)C2(CCCC2)NC(=O)[C@@H]2CCCN2C(=O)[C@H](CCc2ccc(C(F)(F)F)c(Cl)c2)NC(=O)CN(C)C(=O)[C@@H]1Cc1ccc(C(F)(F)F)cc1 [PP0165] ([NMeL]IP[Sar][NPrPhe(4-CF3)][Sar][hPhe(3-Cl-4-CF3)]P[Ac5c][NMeGly(cPent)][NMeD]-Morpholide; lactam N-11)	B (a compound having 3 or more and less than 10 is denoted as B)	B (a compound having 3 or more and less than 10 is denoted as B)		
0.57 nM		CC[C@H](C)[C@@H]1NC(=O)[C@H](CC(C)C)N(C)C(=O)C[C@@H](C(=O)N2CCOCC2)N(C)C(=O)[C@H](C2CCCC2)N(C)C(=O)C2(CCCCC2)NC(=O)[C@@H]2CCCN2C(=O)[C@H](CCc2ccc(C(F)(F)F)c(Cl)c2)NC(=O)CN(C)C(=O)[C@H](Cc2ccc(C(F)(F)F)cc2)N(CC)C(=O)[C@@H]2CCN2C(=O)[C@H](C)N(C)C1=O [PP0222] ([NMeL]I[NMeA][Aze][NEtPhe(4-CF3)][Sar][hPhe(3-Cl-4-CF3)]P[Ac6c][NMeGly(cPent)][NMeD]-Morpholide; lactam N-11)	C (A compound having a KD ratio of 0.1 or more and less than 3 is denoted as C)	C (A compound having a KD ratio of 0.1 or more and less than 3 is denoted as C)		
	0.093 nM	CC[C@H](C)[C@@H]1NC(=O)[C@H](C2CC2)N(C)C(=O)C[C@@H](C(=O)N(C)CC)N(C)C(=O)[C@H](C2CCCC2)N(C)C(=O)C2(CCC2)NC(=O)[C@@H]2C[C@H](C)CN2C(=O)[C@H](CCc2cc(F)c(C(F)(F)F)c(F)c2)NC(=O)CN(C)C(=O)[C@H](Cc2ccc(C(F)(F)F)cc2)N2CC/C=C\C[C@@H](C2=O)N(C)C(=O)CN(C)C1=O [PP2080]	A (a compound having 10 or more and less than 20 is denoted as A)	A (a compound having 10 or more and less than 20 is denoted as A)		
12 nM		CCC(CC)[C@@H]1NC(=O)[C@H](CC(C)C)N(C)C(=O)C[C@@H](C(=O)N2CCOCC2)N(C)C(=O)[C@H](C2CCCC2)N(C)C(=O)C2(CCCC2)NC(=O)[C@@H]2CCCN2C(=O)[C@H](CCc2cc(F)c(C(F)(F)F)c(F)c2)NC(=O)CN(C)C(=O)[C@H](Cc2ccc(C(F)(F)F)cc2)N2CCCCC[C@@H](C2=O)N(C)C(=O)CN(C)C1=O [PP0523]			B (a compound having 3 or more and less than 10 is denoted as B)	A (a compound having 10 or more and less than 20 is denoted as A)
0.1 nM		CC[C@H](C)[C@@H]1NC(=O)[C@H](CC(C)C)N(C)C(=O)C[C@@H](C(=O)N2CCOCC2)N(C)C(=O)[C@H](C2CCCC2)N(C)C(=O)C2(CCCC2)NC(=O)[C@@H]2CCCN2C(=O)[C@H](CCc2ccc(C(F)(F)F)c(Cl)c2)NC(=O)CN(C)C(=O)[C@H](Cc2ccc(C(F)(F)F)cc2)N(CCCOC)C(=O)[C@@H]2CCN2C(=O)[C@H](C)N(C)C1=O [PP0119] ([NMeL]I[NMeA][Aze][X31][Sar][hPhe(3-Cl-4-CF3)]P[Ac5c][NMeGly(cPent)][NMeD]-Morpholide; lactam N-11)	C (A compound having a KD ratio of 0.1 or more and less than 3 is denoted as C)	C (A compound having a KD ratio of 0.1 or more and less than 3 is denoted as C)		
0.21 nM		CC[C@H](C)[C@@H]1NC(=O)[C@H](CC(C)C)N(C)C(=O)C[C@@H](C(=O)N2CCOCC2)N(C)C(=O)[C@H](C2CCCCC2)N(C)C(=O)C2(CCCC2)NC(=O)[C@@H]2CCCN2C(=O)[C@H](CCc2cc(F)c(C(F)(F)F)c(F)c2)NC(=O)CN(C)C(=O)[C@H](Cc2ccc(C(F)(F)F)cc2)N2CCCC[C@@H](C2=O)N(C)C(=O)CN(C)C1=O [PP0567]			B (a compound having 3 or more and less than 10 is denoted as B)	B (a compound having 3 or more and less than 10 is denoted as B)
0.33 nM		C#CC[C@H]1C(=O)N[C@@H]([C@@H](C)CC)C(=O)N(C)CC(=O)N(C)[C@H]2CCCCCN(C2=O)[C@@H](Cc2ccc(C(F)(F)F)cc2)C(=O)N(C)CC(=O)N[C@@H](CCc2cc(F)c(C(F)(F)F)c(F)c2)C(=O)N2C[C@H](OCC)C[C@H]2C(=O)NC2(CCC2)C(=O)N(C)[C@@H](C2CCCC2)C(=O)N(C)[C@H](C(=O)N(C)C)CC(=O)N1C [PP0666]			B (a compound having 3 or more and less than 10 is denoted as B)	B (a compound having 3 or more and less than 10 is denoted as B)
